Reference: article PMC7308088, “A moth odorant receptor highly expressed in the ovipositor is involved in detecting host-plant volatiles” (eLife, 2020)

Biological target: T1, HassOR31/HassORco (Helicoverpa assulta, UniProt A0A7D3UMA0)
T1 construct: with Odorant receptor coreceptor
T1 sequence (A0A7D3UMA0 1-395): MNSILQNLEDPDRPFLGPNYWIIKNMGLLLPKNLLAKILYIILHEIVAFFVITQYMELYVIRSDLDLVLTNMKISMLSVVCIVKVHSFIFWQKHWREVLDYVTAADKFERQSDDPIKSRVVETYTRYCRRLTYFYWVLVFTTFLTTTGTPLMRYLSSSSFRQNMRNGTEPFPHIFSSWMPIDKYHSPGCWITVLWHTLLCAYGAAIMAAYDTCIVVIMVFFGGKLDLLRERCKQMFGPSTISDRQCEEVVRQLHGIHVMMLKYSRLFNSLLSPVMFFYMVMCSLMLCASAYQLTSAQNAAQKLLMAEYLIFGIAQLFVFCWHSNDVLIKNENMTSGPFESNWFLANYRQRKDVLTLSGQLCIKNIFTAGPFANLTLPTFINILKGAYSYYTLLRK
T1 sequence (A7UGE1 1-473 partner): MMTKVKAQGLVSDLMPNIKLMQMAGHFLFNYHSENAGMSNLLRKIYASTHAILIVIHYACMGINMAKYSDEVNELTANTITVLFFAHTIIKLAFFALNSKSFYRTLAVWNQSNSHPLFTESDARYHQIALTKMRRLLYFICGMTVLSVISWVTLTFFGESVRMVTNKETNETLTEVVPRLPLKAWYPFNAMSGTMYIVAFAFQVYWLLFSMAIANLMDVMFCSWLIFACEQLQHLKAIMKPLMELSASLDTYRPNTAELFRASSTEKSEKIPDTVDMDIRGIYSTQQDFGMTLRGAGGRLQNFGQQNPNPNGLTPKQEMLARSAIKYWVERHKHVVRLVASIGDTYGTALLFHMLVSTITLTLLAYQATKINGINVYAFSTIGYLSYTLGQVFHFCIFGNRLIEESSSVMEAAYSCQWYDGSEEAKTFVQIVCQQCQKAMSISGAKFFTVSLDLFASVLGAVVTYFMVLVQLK
Experiment: two-electrode voltage clamp, Xenopus oocytes, inward current
Format: cell-based

Q: For `CC/C=C\CCOC(=O)CCC` [Z-3-hexenyl butyrate], which EC50 is on record?
A: The EC50 was 16.1 µM.
